Reference: paper PMC10620162, “Structure—yeast α-glucosidase inhibitory activity relationship of 9-O-berberrubine carboxylates” (Scientific Reports, 2023)
Where two headings read alike, the source gives them in different places.

What was measured:
[1] = design: method as in PMID 27020531; conditions: at 20 °C ref 19; cited from earlier work
yeast α-glucosidase [2] = molecular target: T1, yeast α-glucosidase (Saccharomyces cerevisiae, UniProt P53341); experiment: biochemical; conditions: for inhibition at 50 µM: read-out: Inhibition at 50 μM (%), 50 μM
T1 construct: purchased Sigma Aldrich
T1 sequence (P53341 whole entry): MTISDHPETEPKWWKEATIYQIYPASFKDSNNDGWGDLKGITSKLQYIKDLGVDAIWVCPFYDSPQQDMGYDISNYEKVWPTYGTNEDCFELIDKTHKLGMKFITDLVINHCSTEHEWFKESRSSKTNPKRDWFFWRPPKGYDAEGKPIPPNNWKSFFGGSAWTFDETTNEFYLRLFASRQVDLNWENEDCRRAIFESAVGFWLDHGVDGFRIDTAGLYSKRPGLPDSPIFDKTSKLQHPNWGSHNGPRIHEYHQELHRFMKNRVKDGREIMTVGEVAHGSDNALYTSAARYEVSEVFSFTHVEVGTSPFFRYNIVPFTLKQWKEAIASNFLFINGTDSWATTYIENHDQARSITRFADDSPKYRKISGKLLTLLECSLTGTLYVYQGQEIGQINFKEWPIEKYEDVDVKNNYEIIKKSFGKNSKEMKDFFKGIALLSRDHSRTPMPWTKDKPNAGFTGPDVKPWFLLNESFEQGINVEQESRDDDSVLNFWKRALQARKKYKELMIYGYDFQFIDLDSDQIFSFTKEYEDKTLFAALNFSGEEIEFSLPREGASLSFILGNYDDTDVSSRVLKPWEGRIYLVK
Description: Berberrubine derivatives will be assayed for yeast α-glucosidase inhibitory activity. The protocol described by Ramadhan et al. will be used[37]. Briefly, yeast α-glucosidase (0.1 U/mL) and substrate (1 mM p-nitrophenyl-α-D-glucopyranoside) were dissolved in 0.1 M phosphate buffer (pH 6.9). A 10 μL test sample was pre-incubated with α-glucosidase (40 μL) at 37 °C for 10 min. A substrate solution (50 μL) was then added to the reaction mixture and incubated at 37 °C for an additional 20 min, and terminated by adding 1 M Na2CO3 solution (100 μL). […] The percentage inhibition of activity was calculated as follows: % Inhibition = [(A0 − A1)/A0] × 100, where: A0 is the absorbance without the sample; A1 is the absorbance with the sample. The IC50 value was deduced from the plot of % inhibition versus the concentration of the test sample.

HepG2 cells = test system: HepG2 cells; design: method as in PMID 27561717; conditions: cited from earlier work; for glucose consumption (GC): HepG2 cells ref 29
[3] = design: method as in doi:10.2217/clp.09.41, PMID 16956957; conditions: cited from earlier work
[4] = cytotoxicity study with HEK-293 cells (CellTiter 96 AQueous One); assay type: cell-based; conditions: human
Description: HEK-293 cells (ATCC® CRL-1573™) were maintained in growth medium consisting of DMEM (Gibco®, Langley, OK) supplemented with 10% fetal bovine serum (Gibco®, Langley, OK), 100 I.U./ml penicillin (Bio Basic Canada®, Ontario, CA), 100 μg/ml streptomycin (Bio Basic Canada®, Ontario, CA), and 10 mM HEPES (4-(2-hydroxyethyl)-1-piperazineethanesulfonic acid) (Sigma Aldrich®, St. Louis, MO) at 37 °C under 5% CO2.
The cytotoxicity of the active compounds (9, 26, 28 and 33) was tested with HEK-293 cells. The cells were seeded at 1 × 10^4 cells per well into 96-well plates in growth medium and incubated overnight. The compounds were prepared at the indicated concentrations in dimethylsulfoxide (DMSO) and added to the cells. Cells were incubated for 48 h before analyzing the cell viability using CellTiter 96® AQueous One Solution Cell Proliferation Assay kit (Promega, USA) according to manufacturer’s protocol. The plate was read at the A490 by VICTORTM X3 microplate reader (PerkinElmer, USA). The 1%DMSO treated cells as a positive control (100% viability). The CC50 values were calculated from nonlinear regression analysis. Results were reported as means and standard error mean (SEM) from three biological independent experiments.

yeast α-glucosidase [5] = molecular target: T1, yeast α-glucosidase; experiment: kinetic study of α-glucosidase inhibition (Lineweaver–Burk plots); assay type: biochemical; conditions: for inhibition type: Lineweaver–Burk plot analysis
Description: To further investigate how these 9-O-berberrubine carboxylates interact with yeast α-glucosidase, the inhibition types of four potential compounds, 9, 26, 28 and 33 were studied by using Lineweaver–Burk plot analysis.
The mode of inhibition of α-glucosidase was determined from Lineweaver–Burk plots. The inhibition type was determined using various concentrations of p-NPG substrate in the absence or presence of compounds at different concentrations. The Ki value was determined from secondary plots of slope versus [I].

yeast α-glucosidase [6] = molecular target: yeast α-glucosidase; design: method as in PMID 26917220; conditions: cited from earlier work

Row | SMILES | inhibition at 50 µM (yeast α-glucosidase [2]) [%] | IC50 (yeast α-glucosidase [2]; read-out: IC50) [µM] | IC50 (yeast α-glucosidase [2]) [µM] | other results
1 | COc1ccc2cc3[n+](cc2c1OC)CCc1cc2c(cc1-3)OCO2 [BBR, Berberine, reference compound] | < 0 |  |  | aqueous solubility [1]: ~ 1.8 mg/mL; glucose consumption (GC) (HepG2 cells): 5.04 mM; bioavailability [3]: less than 5%
2 | COc1ccc2cc3[n+](cc2c1OC(=O)c1ccccc1OCc1ccccc1)CCc1cc2c(cc1-3)OCO2.[Cl-] [Compound 9, 9-((2-(benzyloxy)benzoyl)oxy)-10-methoxy-5,6-dihydro-[1,3]dioxolo[4,5-g]isoquinolino[3,2-a]isoquinolin-7-ium chloride] | 100 | 2.29 ± 0.08 |  | CC50 at 48 h [4]: 30.5 µM; inhibition type (yeast α-glucosidase [5]): competitive
3 | COc1ccc2cc3[n+](cc2c1OC(=O)c1ccccc1C)CCc1cc2c(cc1-3)OCO2 [Compound 22, 10-methoxy-9-((2-methylbenzoyl)oxy)-5,6-dihydro-[1,3]dioxolo[4,5-g]isoquinolino[3,2-a]isoquinolin-7-ium chloride] | 90.6 |  | 18.1 ± 0.68 | 
4 | COc1ccc2cc3[n+](cc2c1OC(=O)c1ccc(C)cc1)CCc1cc2c(cc1-3)OCO2 [Compound 23, 10-methoxy-9-((4-methylbenzoyl)oxy)-5,6-dihydro-[1,3]dioxolo[4,5-g]isoquinolino[3,2-a]isoquinolin-7-ium chloride] | 78.9 |  | 17.5 ± 1.11 | 
5 | CCc1ccc(C(=O)Oc2c(OC)ccc3cc4[n+](cc23)CCc2cc3c(cc2-4)OCO3)cc1 [Compound 24, 9-((4-ethylbenzoyl)oxy)-10-methoxy-5,6-dihydro-[1,3]dioxolo[4,5-g]isoquinolino[3,2-a]isoquinolin-7-ium chloride] | 81 |  | 12.5 ± 0.99 | 
6 | COc1ccc2cc3[n+](cc2c1OC(=O)c1ccc(C(C)(C)C)cc1)CCc1cc2c(cc1-3)OCO2 [Compound 25, 9-((4-(tert-butyl)benzoyl)oxy)-10-methoxy-5,6-dihydro-[1,3]dioxolo[4,5-g]isoquinolino[3,2-a]isoquinolin-7-ium chloride] | 98.9 |  | 3.53 ± 0.31 | 
7 | COc1ccc2cc3[n+](cc2c1OC(=O)c1cc(C(C)(C)C)cc(C(C)(C)C)c1)CCc1cc2c(cc1-3)OCO2.[Cl-] [Compound 26, 9-((3,5-di-tert-butylbenzoyl)oxy)-10-methoxy-5,6-dihydro-[1,3]dioxolo[4,5-g]isoquinolino[3,2-a]isoquinolin-7-ium chloride] | 99.8 |  | 1.61 ± 0.08 | CC50 at 48 h [4]: 18.2 µM; Ki (yeast α-glucosidase [5]): 10.7 µM; inhibition type (yeast α-glucosidase [5]): competitive
8 | COc1ccc2cc3[n+](cc2c1OC(=O)c1cccc2ccccc12)CCc1cc2c(cc1-3)OCO2 [Compound 27, 9-((1-naphthoyl)oxy)-10-methoxy-5,6-dihydro-[1,3]dioxolo[4,5-g]isoquinolino[3,2-a]isoquinolin-7-ium chloride] | 99.8 | 2.67 ± 0.27 |  | 
9 | COc1ccc2cc3[n+](cc2c1OC(=O)c1ccc2ccccc2c1)CCc1cc2c(cc1-3)OCO2.[Cl-] [Compound 28, 9-((2-naphthoyl)oxy)-10-methoxy-5,6-dihydro-[1,3]dioxolo[4,5-g]isoquinolino[3,2-a]isoquinolin-7-ium chloride] | 95.7 | 2.63 ± 0.23 |  | CC50 at 48 h [4]: 20.9 µM; inhibition type (yeast α-glucosidase [5]): competitive; Ki (yeast α-glucosidase [5]; secondary plots of slope versus [I], read-out: inhibition constants (Ki)): 25.3 µM
10 | COc1ccc2cc3[n+](cc2c1OC(=O)C=Cc1ccccc1)CCc1cc2c(cc1-3)OCO2.[Cl-] [Compound 29, 9-(cinnamoyloxy)-10-methoxy-5,6-dihydro-[1,3]dioxolo[4,5-g]isoquinolino[3,2-a]isoquinolin-7-ium chloride] | 88.5 |  | 15.1 ± 0.6 | glucose consumption (GC) (HepG2 cells): 6.73 mM; cytotoxicity (HepG2 cells; compared with berberine ref 29): lower than berberine
11 | COc1ccc2cc3[n+](cc2c1OC(=O)/C(C)=C/c1ccccc1)CCc1cc2c(cc1-3)OCO2 [Compound 30, (E)-10-methoxy-9-((2-methyl-3-phenylacryloyl)oxy)-5,6-dihydro-[1,3]dioxolo[4,5-g]isoquinolino[3,2-a]isoquinolin-7-ium chloride] | 91.9 |  | 10.3 ± 0.84 | 
12 | COc1ccc2cc3[n+](cc2c1OC(=O)/C=C/c1ccc2c(c1)OCO2)CCc1cc2c(cc1-3)OCO2 [Compound 31, (E)-9-((3-(benzo[d][1,3]dioxol-5-yl)acryloyl)oxy)-10-methoxy-5,6-dihydro-[1,3]dioxolo[4,5-g]isoquinolino[3,2-a]isoquinolin-7-ium chloride] | 98.9 | 4.64 ± 0.55 |  | 
13 | COc1ccc2cc3[n+](cc2c1OC(=O)/C=C/c1c(Cl)cccc1Cl)CCc1cc2c(cc1-3)OCO2 [Compound 32, (E)-9-((3-(2,6-dichlorophenyl)acryloyl)oxy)-10-methoxy-5,6-dihydro-[1,3]dioxolo[4,5-g]isoquinolino[3,2-a]isoquinolin-7-ium chloride] | 94.8 |  | 16 ± 0.67 | 
14 | COc1ccc2cc3[n+](cc2c1OC(=O)/C=C/C=C/c1ccc2c(c1)OCO2)CCc1cc2c(cc1-3)OCO2.[Cl-] [Compound 33, 9-(((2E,4E)-5-(benzo[d][1,3]dioxol-5-yl)penta-2,4-dienoyl)oxy)-10-methoxy-5,6-dihydro-[1,3]dioxolo[4,5-g]isoquinolino[3,2-a]isoquinolin-7-ium chloride] | 98.7 | 1.95 ± 0.06 |  | CC50 at 48 h [4]: 17.7 µM; inhibition type (yeast α-glucosidase [5]): competitive
15 | COc1ccc2cc3[n+](cc2c1OC(=O)Cc1c(Cl)cccc1Cl)CCc1cc2c(cc1-3)OCO2 [Compound 34, 9-(2-(2,6-dichlorophenyl)acetoxy)-10-methoxy-5,6-dihydro-[1,3]dioxolo[4,5-g]isoquinolino[3,2-a]isoquinolin-7-ium chloride] | 93.9 | 7.3 ± 0.51 |  | 
16 | COc1ccc2cc3[n+](cc2c1OC(=O)C(c1ccccc1)c1ccccc1)CCc1cc2c(cc1-3)OCO2 [Compound 35, 9-(2,2-diphenylacetoxy)-10-methoxy-5,6-dihydro-[1,3]dioxolo[4,5-g]isoquinolino[3,2-a]isoquinolin-7-ium chloride] | 95.2 | 6.19 ± 0.32 |  | 
17 | O=c1c2ccccc2oc2cc(O)cc(O)c12 [Compound X1, 1,3-dihydroxyxanthone] |  |  |  | IC50 (yeast α-glucosidase [6]): 145 µM
18 | CC(C)(C)[Si](C)(C)Oc1ccc(C(=O)Oc2cc(O)c3c(=O)c4ccccc4oc3c2)cc1 [Compound X2, 3-Arylacyloxyxanthone] |  |  |  | IC50 (yeast α-glucosidase [6]): 10.6 µM
